By IC50 is commonly meant the concentration needed to halve the response being measured.

human TRPA1, sequence (O75762 whole entry): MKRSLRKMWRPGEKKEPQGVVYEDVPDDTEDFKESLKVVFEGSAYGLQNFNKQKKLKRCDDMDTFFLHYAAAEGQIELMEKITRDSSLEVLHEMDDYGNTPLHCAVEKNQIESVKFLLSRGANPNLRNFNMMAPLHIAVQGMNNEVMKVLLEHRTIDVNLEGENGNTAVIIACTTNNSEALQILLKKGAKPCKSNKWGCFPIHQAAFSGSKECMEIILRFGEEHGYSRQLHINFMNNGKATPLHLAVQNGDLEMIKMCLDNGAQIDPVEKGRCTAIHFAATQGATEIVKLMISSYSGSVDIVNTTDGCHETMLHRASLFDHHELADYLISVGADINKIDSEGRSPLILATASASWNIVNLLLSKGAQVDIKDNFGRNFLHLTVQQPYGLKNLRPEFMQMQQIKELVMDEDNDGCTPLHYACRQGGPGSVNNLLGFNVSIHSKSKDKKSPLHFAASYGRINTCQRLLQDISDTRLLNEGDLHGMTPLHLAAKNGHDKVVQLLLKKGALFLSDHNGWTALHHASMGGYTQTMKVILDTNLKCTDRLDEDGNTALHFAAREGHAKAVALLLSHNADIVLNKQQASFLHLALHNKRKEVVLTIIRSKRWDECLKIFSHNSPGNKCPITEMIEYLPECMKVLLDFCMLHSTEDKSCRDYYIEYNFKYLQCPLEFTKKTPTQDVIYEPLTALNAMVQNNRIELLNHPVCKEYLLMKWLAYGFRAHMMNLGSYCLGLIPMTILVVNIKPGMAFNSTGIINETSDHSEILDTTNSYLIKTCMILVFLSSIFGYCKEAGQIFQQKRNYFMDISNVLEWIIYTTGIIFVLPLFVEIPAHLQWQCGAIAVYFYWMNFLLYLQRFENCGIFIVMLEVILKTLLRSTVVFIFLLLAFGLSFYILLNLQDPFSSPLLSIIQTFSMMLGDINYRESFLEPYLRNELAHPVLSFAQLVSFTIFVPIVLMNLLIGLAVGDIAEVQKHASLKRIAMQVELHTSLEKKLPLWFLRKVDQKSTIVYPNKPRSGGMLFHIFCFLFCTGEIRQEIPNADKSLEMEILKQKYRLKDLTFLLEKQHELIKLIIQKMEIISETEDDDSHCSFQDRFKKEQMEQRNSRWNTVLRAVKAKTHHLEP

In this assay the target is human TRPA1 (Homo sapiens (Human), UniProt O75762). Put plainly: FLIPR Tetra calcium influx assay, block of cinnamaldehyde-induced calcium influx in CHO cells expressing TRPA1 (human). The class given is cell-based. The conditions noted are these: 20 min compound incubation, 75 uM cinnamaldehyde (~EC80), Hill coefficient fixed to 1.5, read-out: hTRPA1 AUC IC50. The method, then:
IC50 Determinations of Exemplified Compounds.
IC50s (effective concentration) of compounds on the human and rat TRPA1 channels were determined using a FLIPR Tetra instrument. CHO cells expressing TRPA1 were plated into 384-well plates, incubated overnight at 37C, and loaded with BD calcium indicator dye for 1 hr at 37° C. followed by 15 minutes. at room temperature. The assay buffer was Hank's Balanced Salt Solution (HBSS) containing 20 mM HEPES (pH readjusted to 7.4) along with 0.02% BSA.
Following dye load and plate cool down, compounds were added to the cells using FLIPR Tetra. Plates were then incubated with compounds for 20 minutes at room temperature prior to adding agonist. Following this incubation, ˜EC80 concentration of cinnamaldehyde (75 uM for human TRPA1 and 45 uM for rat TRPA1) was added to active the channels and block of cinnamaldehyde induced calcium influx was measured.
Fixing the Hill coefficient will generally reduce variability of the IC50 determination. The IC50s were individually examined to make sure the MIN and MAX points were set correctly prior to validation of the results.
`N#Cc1nn(-c2ccc(C(F)(F)F)cc2)cc1CNC(=O)[C@@H]1C[C@@H](F)CN1S(=O)(=O)c1ccc(F)cc1` [Example 50, (2S,4R)—N-([3-cyano-1-[4-(trifluoromethyl)phenyl]-1H-pyrazol-4-yl]methyl)-4-fluoro-1-[(4-fluorobenzene)sulfonyl]pyrrolidine-2-carboxamide]: the IC50 was 60 nM.

For the compound `O=C(NCc1cc(F)cc(-c2cnc(C(F)(F)F)cn2)c1)[C@@H]1C[C@@H](F)CN1S(=O)(=O)c1ccc(F)cc1` [Example 122, (2S,4R)-4-fluoro-1-(4-fluorophenyl)sulfonyl-N-[[3-fluoro-5-[5-(trifluoromethyl)pyrazin-2-yl]phenyl]methyl]pyrrolidine-2-carboxamide], the IC50 is 14 nM.

As for `O=C(NCc1cc(-c2ccc(C(F)(F)F)nc2)ncn1)[C@@H]1CCN1S(=O)(=O)c1ccc(F)cc1` [Example 201, (S)-1-(4-fluorophenylsulfonyl)-N-((6-(6-(trifluoromethyl)pyridin-3-yl)pyrimidin-4-yl)methyl)azetidine-2-carboxamide], the 50% inhibitory concentration (IC50) amounted to 268 nM.

Turning to `O=C(NCc1cc(-c2cnc(C(F)(F)F)nc2)nc(-c2cnc(C(F)(F)F)nc2)c1)[C@@H]1C[C@@H](F)CN1S(=O)(=O)c1ccc(F)cc1` [Example 61, (2S,4R)—N-[[2,6-bis[2-(trifluoromethyl)pyrimidin-5-yl]-4-pyridyl]methyl]-4-fluoro-1-(4-fluorophenyl)sulfonyl-pyrrolidine-2-carboxamide], the IC50 is 71 nM.

With `O=C(NCc1cc(-c2cnc(C(F)(F)F)nc2)ccc1F)[C@]12C[C@H]1CCN2S(=O)(=O)c1ccc(F)cc1` [Example 182, (1R,5S)-4-(4-fluorophenyl)sulfonyl-N-[[2-fluoro-5-[2-(trifluoromethyl)pyrimidin-5-yl]phenyl]methyl]-4-azabicyclo[3.1.0]hexane-5-carboxamide], the half-inhibitory concentration (IC50) came out at 21 nM.

As for `O=C(NCc1cc(-c2ccc(C(F)(F)F)cc2)ncn1)[C@@H]1C[C@@H](F)CN1S(=O)(=O)c1ccc(F)cc1` [Example 143, (2S,4R)-4-fluoro-1-(4-fluorophenylsulfonyl)-N-((6-(4-(trifluoromethyl)phenyl)pyrimidin-4-yl)methyl)pyrrolidine-2-carboxamide], the half-inhibitory concentration (IC50) came to 15 nM.

Turning to `O=C(NCc1cc(-c2cnc(C(F)(F)F)nc2)ccn1)[C@@H]1C[C@@H](F)CN1S(=O)(=O)c1ccc(F)cc1` [Example 53, (2S,4R)-4-fluoro-1-(4-fluorophenyl)sulfonyl-N-[[4-[2-(trifluoromethyl)pyrimidin-5-yl]-2-pyridyl]methyl]pyrrolidine-2-carboxamide], the IC50 worked out at 411 nM.

Regarding `O=C(NCc1cc(-c2cnc(C(F)(F)F)cn2)ccn1)[C@@H]1C[C@@H](F)CN1S(=O)(=O)c1ccc(F)cc1` [Example 82, (2S,4R)-4-fluoro-1-(4-fluorophenyl)sulfonyl-N-[[4-[5-(trifluoromethyl)pyrazin-2-yl]-2-pyridyl]methyl]pyrrolidine-2-carboxamide], the IC50 is 189 nM.

`C[C@@H]1[C@@H](C(=O)NCc2cc(-c3ccc(C(F)(F)F)nc3)ncn2)N(S(=O)(=O)c2ccc(F)cc2)C[C@@H]1F` (single isomer, unassigned) [Example 106]: the IC50 came to 280 nM.

Turning to `O=C(NCc1cc(N2CCC(C(F)(F)F)CC2)c(F)cn1)[C@@H]1C[C@@H](F)CN1S(=O)(=O)c1ccc(F)cc1` [Example 144, (2S,4R)-4-fluoro-N-((5-fluoro-4-(4-(trifluoromethyl)piperidin-1-yl)pyridin-2-yl)methyl)-1-(4-fluorophenylsulfonyl)pyrrolidine-2-carboxamide], the 50% inhibitory concentration (IC50) was 56 nM.

Turning to `N#Cc1cnc(-c2ccc(C(F)(F)F)nc2)cc1CNC(=O)[C@@H]1[C@@H](F)CCN1S(=O)(=O)c1ccc(F)cc1` [Example 166, (2R,3S)—N-([5-cyano-2-[6-(trifluoromethyl)pyridin-3-yl]pyridin-4-yl]methyl)-3-fluoro-1-[(4-fluorobenzene)sulfonyl]pyrrolidine-2-carboxamide], the IC50 is 13 nM.

Turning to `O=C(NCc1cc(-c2ccc(C(F)(F)F)cc2)ncn1)[C@@H]1C[C@H]2COC[C@H]2N1S(=O)(=O)c1ccc(F)cc1` (single isomer, unassigned) [Example 99], the IC50 amounted to 428 nM.

As to `CC1(C)CC[C@@H](C(=O)NCc2cc(-c3ccc(C(F)(F)F)nc3)ncn2)N1S(=O)(=O)c1ccc(F)cc1` [Example 194, (2S)-1-(4-fluorophenyl)sulfonyl-5,5-dimethyl-N-[[6-[6-(trifluoromethyl)-3-pyridyl]pyrimidin-4-yl]methyl]pyrrolidine-2-carboxamide], the IC50 came out at 381 nM.

On to `COc1nc(C(F)(F)F)ccc1-c1cc(F)cc(CNC(=O)[C@@H]2C[C@@H](F)CN2S(=O)(=O)c2ccc(F)cc2)c1` [Example 44, (2S,4R)-4-fluoro-N-([3-fluoro-5-[2-methoxy-6-(trifluoromethyl)pyridin-3-yl]phenyl]methyl)-1-[(4-fluorobenzene)sulfonyl]pyrrolidine-2-carboxamide], for which the concentration for half-maximal inhibition (IC50) turned out to be 48 nM.

For the compound `O=C(NCc1cc(F)cc(-c2cnc(C(F)(F)F)nc2)c1)[C@@H]1C[C@@H](F)CN1S(=O)(=O)c1ccc(F)cc1` [Example 91, (2S,4R)-4-fluoro-1-(4-fluorophenyl)sulfonyl-N-[[3-fluoro-5-[2-(trifluoromethyl)pyrimidin-5-yl]phenyl]methyl]pyrrolidine-2-carboxamide], the IC50 turned out to be 14 nM.

Consider `O=C(NCc1cc(-c2cnc(C(F)(F)F)nc2)ncc1F)[C@@H]1C[C@@H](F)CN1S(=O)(=O)c1ccc(F)cc1` [Example 180, (2S,4R)-4-fluoro-1-(4-fluorophenyl)sulfonyl-N-[[5-fluoro-2-[2-(trifluoromethyl)pyrimidin-5-yl]-4-pyridyl]methyl]pyrrolidine-2-carboxamide], for which the IC50 was found to be 26 nM.

As for `O=C(NCc1cc(C2=CCC(C(F)(F)F)CC2)ncn1)[C@@H]1C[C@@H](F)CN1S(=O)(=O)c1ccc(F)cc1` (stereo partly drawn) [Example 148, (2S,4R)-4-fluoro-1-(4-fluorophenylsulfonyl)-N-((6-(4-(trifluoromethyl)cyclohex-1-enyl)pyrimidin-4-yl)methyl)pyrrolidine-2-carboxamide], the concentration for half-maximal inhibition (IC50) is 46 nM.

Consider `O=C(NCc1cc(-c2ccc(C(F)(F)F)nn2)ccc1F)[C@@H]1C[C@@H](F)CN1S(=O)(=O)c1ccc(F)cc1` [Example 163, (2S,4R)-4-fluoro-N-(2-fluoro-5-(6-(trifluoromethyl)pyridazin-3-yl)benzyl)-1-((4-fluorophenyl)sulfonyl)pyrrolidine-2-carboxamide], for which the IC50 was 43 nM.

As to `O=C(NCc1cc(-c2ccc(C(F)(F)F)cc2)ncn1)[C@@H]1C[C@@H](F)CN1S(=O)(=O)c1ccc(F)c(F)c1` [Example 150, (2S,4R)-1-(3,4-difluorophenylsulfonyl)-4-fluoro-N-((6-(4-(trifluoromethyl)phenyl)pyrimidin-4-yl)methyl)pyrrolidine-2-carboxamide], the IC50 amounted to 46 nM.

On to `O=C(NCc1cc(-c2ccc(C(F)(F)F)nc2)ccc1F)[C@@H]1C[C@@H](F)CN1S(=O)(=O)c1ccc(F)cc1` [Example 161, (2S,4R)-4-fluoro-N-(2-fluoro-5-(6-(trifluoromethyl)pyridin-3-yl)benzyl)-1-((4-fluorophenyl)sulfonyl)pyrrolidine-2-carboxamide], for which the half-maximal inhibitory concentration (IC50) is 9 nM.

For the compound `O=C(NCc1cc(F)cc(-c2ccc(C(F)(F)F)cn2)c1)[C@@H]1C[C@@H](F)CN1S(=O)(=O)c1ccc(F)cc1` [Example 95, (2S,4R)-4-fluoro-1-(4-fluorophenyl)sulfonyl-N-[[3-fluoro-5-[5-(trifluoromethyl)-2-pyridyl]phenyl]methyl]pyrrolidine-2-carboxamide], the IC50 was found to be 12 nM.

Regarding `COCCOc1nc(C(F)(F)F)ccc1-c1cc(F)cc(CNC(=O)[C@@H]2C[C@@H](F)CN2S(=O)(=O)c2ccc(F)cc2)c1` [Example 190, (2S,4R)-4-fluoro-N-([3-fluoro-5-[2-(2-methoxyethoxy)-6-(trifluoromethyl)pyridin-3-yl]phenyl]methyl)-1-[(4-fluorobenzene)sulfonyl]pyrrolidine-2-carboxamide], the IC50 came to 52 nM.

`COc1nn(-c2ccc(C(F)(F)F)nc2)cc1CNC(=O)[C@@H]1C[C@@H](F)CN1S(=O)(=O)c1ccc(F)cc1` [Example 153, (2S,4R)-4-fluoro-1-[(4-fluorobenzene)sulfonyl]-N-([3-methoxy-1-[6-(trifluoromethyl)pyridin-3-yl]-1H-pyrazol-4-yl]methyl)pyrrolidine-2-carboxamide]: the IC50 amounted to 68 nM.

As to `O=C(NCc1ccc(F)c(-c2cnc(C(F)(F)F)cn2)c1)[C@@H]1[C@@H](F)CCN1S(=O)(=O)c1ccc(F)cc1` [Example 97, (2R,3S)-3-fluoro-N-([4-fluoro-3-[5-(trifluoromethyl)pyrazin-2-yl]phenyl]methyl)-1-[(4-fluorobenzene)sulfonyl]pyrrolidine-2-carboxamide], the IC50 came out at 24 nM.

`O=C(NCc1cc(C23CCC(C(F)F)(CC2)CC3)ncn1)[C@@H]1C[C@@H](F)CN1S(=O)(=O)c1ccc(F)cc1` [Example 133, (2S,4R)—N-[[6-[4-(difluoromethyl)-1-bicyclo[2.2.2]octanyl]pyrimidin-4-yl]methyl]-4-fluoro-1-(4-fluorophenyl)sulfonyl-pyrrolidine-2-carboxamide]: the half-maximal inhibitory concentration (IC50) turned out to be 59 nM.
